Test results: PMC12124721, “Impact of Fluorine Pattern on Lipophilicity and Acid–Base Properties of 2‑(Thiofluoroalkyl)pyridines: Insights from Experiments and Statistical Modeling” (Journal of Medicinal Chemistry, 2025)
Several values for one entry are separate records, joined by “and”; a condition that tells them apart may be missing. Equal values may be shown once. Entries after “also recorded” stand apart in the source; their conditions may differ.

Assays:
[1] = pKa of conjugate acid by 1H NMR titration (nonfluorinated analogues); type: physicochemical; conditions: aqueous solutions of different pH, conjugate acid (pyridinium), water
Description: (§1) The measurements were conducted on the corresponding conjugate acids of the thiofluoroalkylpyridines using an ^19F NMR method developed by Leito and coworkers. For nonfluorinated analogues, pK a was determined by an analogous method using ^1H NMR. […] Likewise, internal difluorination of the thioethyl group led to a more acidic pyridinium (9, pK a 2.05) compared to terminal difluorination (6, pK a 2.43). […] Computationally, it is straightforward to determine pK a values for molecular organic systems, obtaining quantitative predictions via fitting to experimental data (Table S12).
A protocol developed by the group of Leito was followed for the determination of the […] of fluorinated 2-substituted pyridines using ^19F NMR. […] Next, the tube was caped and shaken vigorously, and the pH of the resulting solution was measured inside the tube with a pH meter with an NMR-tube probe. […] Next, a standard ^19F NMR experiment was recorded to determine the chemical shifts of the external standard and the sample of interest. […] The battery of NMR samples at different pH values was measured. • Data processing: using MestReNova NMR software, the chemical shifts of the pyridines were determined. […] Next, the selected signal for each pyridine was plotted against the pH of the measured solution. […]

[2] = logD7.4 by shake-flask HPLC-UV for nonfluorinated pyridines; type: physicochemical; conditions: for logD: 1-octanol/phosphate buffer, pH 7.4, 1-octanol/phosphate buffer pH 7.4, HPLC-UV; for logD (single sample A, B, C): Table S2, individual HPLC-UV partitionings at different buffer:octanol volume ratios, pH 7.4
Description: A protocol described by Ràfols and coworkers was followed for the determination of the log D ^7.4 values of the nonfluorinated pyridines. The 4-step process was replicated three times for each compound: • Stocksolution preparation: in a 12 mL vial, 15 mg of the pyridine was charged. Then, 6 mL of phosphate buffer at pH 7.4 was added, and the mixture was vigorously shaken for 2 h. An aliquot of this stock solution was measured by HPLC-UV. • Partitioning: three partitioning experiments were carried out for each compound. To prepare an experiment, in a vial containing a magnetic stir bar, a known amount of the stock solution was introduced, followed by another known amount of 1-octanol. Next, the biphasic mixture was stirred for 2 h and left to stand overnight to allow phase partition. For the selection of the different volume ratios, it was followed reported recommendations, although 1:1, 10:1, and 1:10 octanol:stock solutions were usually employed. • Sample preparation and measurement: to prepare the sample, 0.1 mL of the aqueous phase was taken and introduced in a 2 mL vial, following the precautions described in the previous section. The samples were then analyzed with the same HPLC-UV method as that of the stock solution. The log D ^7.4 value was obtaining by comparing the initial amount of pyridine in the aqueous phase before and after partitioning, taking into consideration the volume rates.

[3] = pKa of conjugate acid by 19F NMR titration (Leito method); type: physicochemical; conditions: aqueous solutions of different pH, conjugate acid (pyridinium), water
Description: as §1
A protocol developed by the group of Leito was followed for the determination of the […] of fluorinated 2-substituted pyridines using ^19F NMR. […] Next, the tube was caped and shaken vigorously, and the pH of the resulting solution was measured inside the tube with a pH meter with an NMR-tube probe. This procedure was repeated for all of the aqueous solutions to have a battery of NMR tubes at different pH values. If needed, additional solutions were prepared to ensure a continuum of pH values. • Sample measurement: for ^19F NMR measurements, a 3 mm NMR tube containing a solution of 8 mg of KF in 1 mL of D2O was inserted into the NMR tube of interest to serve as an external standard. Next, a standard ^19F NMR experiment was recorded to determine the chemical shifts of the external standard and the sample of interest. For the ^1H method, the same protocol was applied by changing the external standard for 5 μL of trifluoroethanol instead of KF. The battery of NMR samples at different pH values was measured. • Data processing: using MestReNova NMR software, the chemical shifts of the pyridines were determined. For ^19F NMR experiments, the KF reference was set to −125.00 ppm, and the closest ^19F signal of the pyridine was chosen for the chemical shift determination. For ^1H NMR experiments, the trifluoroethanol reference (CF3CH2OH) was set to 3.14 ppm, and the methyl signals of the nonfluorinated pyridines were chosen for the chemical shift determination. Next, the selected signal for each pyridine was plotted against the pH of the measured solution. Using Prism GraphPad software, a sigmoidal curve was adjusted, and the second derivate was performed to obtain the pK a value of the given pyridine.

[4] = logD7.4 by 19F NMR shake-flask partitioning (Linclau method); type: physicochemical; conditions: for logD: 1-octanol/phosphate buffer; for logD (single replicate): Table S1, individual 19F NMR partitioning experiments
Description: LogD ^7.4 (pH 7.4) measurements of the 2-(thiofluoroalkyl)-pyridines were conducted according to a method developed by Linclau and coworkers, a variation on the traditional “shake-flask” partitioning between octanol and water. Together with a fluorinated internal standard of known lipophilicity, simple ^19F NMR experiments allowed for the calculation of the logD ^7.4 value of the compound of interest through integration of NMR signals in each phase. During our experiments, no difference between logD ^7.4 and logP values was observed, probably due to the low basicity of the pyridines. Nonetheless, for the sake of consistency, logD ^7.4 was deemed the appropriate parameter for evaluating lipophilicity.
A protocol developed by the group of Linclau was followed for the determination of the log D ^7.4 values of the 2-substituted pyridines. The 4-step process was replicated three times for each compound: • Partitioning: to a 10 mL pear-shaped flask were added 2 mL of 1-octanol, 2-substituted pyridine (1–10 mg), trifluoroethanol (5 μL), and 2 mL of phosphate buffer (pH 7.4). The resulting mixture was stirred at 25 °C for 2 h by controlling the temperature by an immersion cooler, and then, it was left to stand at 25 °C overnight to enable complete phase separation. • Sample preparation: using a 1 mL disposable syringe, an aliquot of 0.6 mL was carefully taken from the aqueous or the 1-octanol phase. Next, the needle was carefully wiped with a dry tissue, and the aliquot was placed into an NMR tube, followed by addition of 0.1 mL of acetone-d 6. The NMR tubes were sealed using a rubber septum stopper and shaken to obtain a homogeneous solution for NMR measurement. When taking an aliquot of the lower water phase, to avoid the contamination of the syringe with the upper octanol phase, 0.05 mL of air was taken into the syringe before putting the needle into the solution, and while immersing it through the upper octanol layer, the air was gently pushed out. Upon reaching the water phase, all air bubbles are pushed out of the syringe, the aliquot is taken, and the needle is quickly removed from the solution. Then, a small amount of the water phase was discarded to ensure all traces of octanol are out of the needle, leaving a 0.6 mL sample in the syringe. • NMR measurement: fluorine (^19F{1H} NMR) nuclear magnetic resonance spectra were recorded on a Varian Mercury spectrometer or Bruker Avance Ultrashield (376.5 MHz for ^19F NMR). Parameters used in the determination of lipophilicities were obtained from the experiments carried out by Linclau and coworkers. First, the sealed tube was inserted to the NMR spectrometer, and following automatic locking and gradient shimming, a simple ^19F spectrum was recorded on the nonspinning sample to assess the required spectral width (SW) and frequency offset point (O1P). The O1P is centered between the two diagnostic F signals, and the spectral width (SW) is left at 200 ppm (it can be reduced if a better S/N ratio is required). Then, the 90° pulse was measured with the automated pulsecal routine obtaining a power (PW) of 16 μs. The measured 90° pulse, SW, and O1P were transferred into the inversion–recovery experiment. For practical purposes, it is recommended to use a D1 of 30 s for the octanol sample and of 60 s for the water sample as pulse delay, given the D1 value should be greater than 5*T1 for quantitative integration. The number of transients (NS) is selected for each sample to afford a suitable signal-to-noise ratio (SNR should be >250). • Data processing:data were processed using Mestre Nova NMR software. The obtained FID file was reprocessed using the following conditions: WFunction (LB = 2, exponential), zero filling (increasing points from 65,536 to 262,144) and then Fourier transform, followed by phasing with mouse and auto baseline correction. The integration ratio was obtained by manual integration.

[5] = stability in aqueous media during logD measurement; type: physicochemical; conditions: during logD7.4 measurement period
Excerpt: The computational model can also be employed to predict the lipophilicity of experimentally undetermined compounds such as pyridines 21 and 22 (Figure ).

[6] = set-up: method as in earlier work; conditions: thiofluoroalkyl benzenes; logP (=logD7.4) measured indirectly by HPLC retention times; ref 36 (SI), O'Hagan group; cited from earlier work
[7] = nonfluorinated pyridines, mean of three
[8] = pH 7.4, 1-octanol/phosphate buffer pH 7.4, 25 °C, trifluoroethanol reference, 19F NMR, mean of three, read-out: logD7.4
[9] = pH 7.4, Table S1, individual 19F NMR partitioning experiments, pH 7.4, read-out: logD (single replicate)

CSc1ccccn1 [Compound 1, 2-(methylthio)pyridine]
pKa [1]: 3.69
logD [2, 7]: 1.69

FC(F)Sc1ccccn1 [Compound 2, 2-((Difluoromethyl)thio)pyridine]
pKa [3]: 1.7
logD [4, 8]: 1.95

FC(F)(F)Sc1ccccn1 [Compound 3, 2-((Trifluoromethyl)thio)pyridine]
pKa [3]: 0.97
logD [4, 8]: 2.13

CC(F)(F)Sc1ccccn1 [Compound 4, 2-((1,1-Difluoroethyl)thio)pyridine]
pKa [3]: 2.05
logD7.4 ([4]; 1-octanol/phosphate buffer pH 7.4, 25 °C, trifluoroethanol reference, 19F NMR, mean of three): 1.84
logD [4, 8]: 1.82

FC(F)CSc1ccccn1 [Compound 6, 2-((2,2-Difluoroethyl)thio)pyridine]
pKa [3]: 2.43
logD [4, 8]: 2.26

FC(F)C(F)(F)Sc1ccccn1 [Compound 7, 2-((1,1,2,2-Tetrafluoroethyl)thio)pyridine]
pKa [3]: 1.33
logD [4, 8]: 2.27

FC(F)(F)CSc1ccccn1 [Compound 8, 2-((2,2,2-Trifluoroethyl)thio)pyridine]
pKa [3]: 1.49
logD [4, 8]: 2.71

FC(F)(F)C(F)(F)Sc1ccccn1 [Compound 9, 2-((Perfluoroethyl)thio)pyridine]
pKa [3]: 0.94
logD [4, 8]: 2.76

CS(=O)(=O)c1ccccn1 [Compound 10, 2-(Methylsulfonyl)pyridine]
logD [2, 7]: -0.43
logD (single sample A, B, C) [2]: -0,407 and -0,414 and -0,469

O=S(=O)(CF)c1ccccn1 [Compound 11, 2-((Fluoromethyl)sulfonyl)pyridine]
logD [4, 8]: 0.1
logD [4, 9]: 0.093
logD (single replicate) ([4]; pH 7.4): 0,112 and 0,084

O=S(=O)(c1ccccn1)C(F)F [Compound 12, 2-((Difluoromethyl)sulfonyl)pyridine]
logD [4, 8]: 0.55
logD [4, 9]: 0.576
logD (single replicate) ([4]; pH 7.4): 0,541 and 0,538

O=S(=O)(c1ccccn1)C(F)(F)F [Compound 13, 2-((Trifluoromethyl)sulfonyl)pyridine]
logD [4, 8]: 1.43

O=S(=O)(CCF)c1ccccn1 [Compound 14, 2-((2-Fluoroethyl)sulfonyl)pyridine]
logD [4, 8]: -0.21
logD (single replicate) ([4]; pH 7.4): -0,199 and -0,158 and -0,274

CCS(=O)(=O)c1ccccn1 [Compound 15, 2-(Ethylsulfonyl)pyridine]
logD7.4 ([2]; 1-octanol/phosphate buffer pH 7.4, HPLC-UV, nonfluorinated pyridines, mean of three): -0,07
logD [2, 7]: -0.07
logD (single sample A, B, C) [2]: -0,032 and -0,070 and -0,118

O=S(=O)(CC(F)F)c1ccccn1 [Compound 16, 2-((2,2-Difluoroethyl)sulfonyl)pyridine]
logD [4, 8]: 0.31
logD [4, 9]: 0.304
logD (single replicate) ([4]; pH 7.4): 0,315 and 0,309

CC(F)(F)S(=O)(=O)c1ccccn1 [Compound 17, 2-((1,1-Difluoroethyl)sulfonyl)pyridine]
logD [4, 8]: 0.79
logD [4, 9]: 0.786
logD (single replicate) ([4]; pH 7.4): 0,784 and 0,794

O=S(=O)(CC(F)(F)F)c1ccccn1 [Compound 18, 2-((2,2,2-Trifluoroethyl)sulfonyl)pyridine]
logD [4, 8]: 0.81
logD [4, 9]: 0.813
logD (single replicate) ([4]; pH 7.4): 0,802 and 0,803

O=S(=O)(c1ccccn1)C(F)(F)C(F)F [Compound 19, 2-((1,1,2,2-Tetrafluoroethyl)sulfonyl)pyridine]
logD [4, 8]: 1.43

O=S(=O)(c1ccccn1)C(F)(F)C(F)(F)F [Compound 20, 2-((Perfluoroethyl)sulfonyl)pyridine]
logD [4, 8]: 2.21

FCSc1ccccn1 [Compound 21, 2-((Fluoromethyl)thio)pyridine]
stability in aqueous media [5]: decomposes in water; also recorded: decomposed in aqueous media; also recorded: water-unstable
pKa [3]: 2.43

FCCSc1ccccn1 [Compound 22]
stability in aqueous media [5]: decomposes in water; also recorded: decomposed in aqueous media; also recorded: water-unstable
pKa [3]: 3.08

CC(F)(F)Sc1ccccc1 [SCF2CH3 Ph]
logD7.4 (Ph) [6]: 3.38

FC(F)(F)Sc1ccccc1 [SCF3 Ph]
logD7.4 (Ph) [6]: 3.70

FC(F)(F)CSc1ccccc1 [SCH2CF3 Ph]
logD7.4 (Ph) [6]: 3.30

CCSc1ccccc1 [SCH2CH3 Ph]
logD7.4 (Ph) [6]: 3.42

CSc1ccccc1 [SCH3 Ph]
logD7.4 (Ph) [6]: 2.87
